Reference: patent publication US11446308B2, “Methods and compositions for the prevention and treatment of hearing loss” (St. Jude Children's Research Hospital, priority 2015, dated 2022)
Like-named read-outs stand apart in the source and are kept apart here. Residues, ends and D or L forms follow the SMILES beside them. *: point of attachment. Cbz = O=C(OCc1ccccc1)*; CH2F = FC*

Legend:
[1] = tested on: hair cells in zebrafish lateral line neuromasts; test: Protection against cisplatin-induced hair cell loss in zebrafish lateral lines in vivo; conditions: 5-dpf larvae, 5 μM cisplatin
HEI-OC1 cells [2] = test: Caspase-3/7 Glo assay, cisplatin-induced apoptosis in HEI-OC1 cell line
HEI-OC1 cells [3] = tested on: HEI-OC1 cells
[4] = tested on: outer hair cells (OHCs) in mouse cochlear explants; test: Protection against cisplatin-induced hair cell loss in neonatal (P3) mouse cochlear explants; format: cell-based; conditions: for OHC survival: 24 hr cisplatin co-treatment; for IC50: read-out: Mouse Explant IC50; for OHCs protected against cisplatin (For x%): level of protection to which the stated explant IC50 refers; for Explant Cisplatin LD50: LD50, unnumbered table
[5] = tested on: hair cells in mouse cochlear explants
[6] = tested on: hair cells in zebrafish lateral line neuromasts; conditions: for Zebrafish LD50: 5-dpf larvae
Method: The experiments were performed with 5-dpf larval zebrafish of the *AB wild-type strain. Dose-response studies were performed to find the cisplatin concentration at which most of the hair cells in each neuromast were killed in the absence of a protective compound and at the same DMSO concentration (<0.2%).
Experiments were performed in 24-well plates with 5 fish per well in volumes of 1-2 mL. Fish were incubated with 5 μM and stained with 0.005% DASPEI vital dye for 15 minutes. After two washes with egg water, fish were visualized in an epiflourescence microscope. […] Results were plotted as percent survival of hair cells in the cisplatin-treated fish relative to the untreated fish (FIG. 4A-E).

[7] = tested on: mouse medulloblastoma neurosphere lines and human neuroblastoma cell lines; test: Interference with cisplatin's killing function in tumor cell lines (Cell Titer Glo); format: cell-based; conditions: 48 hours, cisplatin 23 μM, compound 3×IC50
Method: FIG. 11 addresses interference with cisplatin's killing function in tumors. Four neurosphere lines derived from mouse medulloblastoma (MB) and two human neuroblastoma (NB) cell lines were tested. HEI-OC1 cell line was tested as controls.
Table 1 lists the top 18 compound hits in the screen in terms of high potency and low toxicity. The top ten compounds were further evaluated by a viability assay (Cell Titer Glo, Promega) in medulloblastoma neurosphere cell lines and neuroblastoma cell lines to test whether they inhibit the ability of cisplatin to kill the tumor cells. The majority had no antagonistic effect on cisplatin's antitumor activity (data not shown) and are therefore safe to use systemically together with cisplatin during chemotherapy to protect against cisplatin-induced hearing loss.

mouse cochlear explants = conditions: cited from earlier work
[8] = cited from earlier work
CDK1, 2, 4, 6 and 9 = conditions: range over the kinases; cited from earlier work
[9] = Mus musculus, HEI-OC1, 22 h, read-out: HEI-OC1 IC50
[10] = read-out: HEI-OC1 IC50, Caspase-3/7 Glo, 50 μM cisplatin, 22 hrs
[11] = Cell Titer Glo, compound without cisplatin, 40 μM to 40 nM, 22 hrs
[12] = P3 cochlear explants, 50 μM cisplatin, 24 hrs
[13] = Mus musculus, 24 h, P3 cochlear explants, 50 μM cisplatin, 24 hrs
[14] = Mus musculus, HEI-OC1, read-out: HEI-OC1 IC50

In the case of `Cc1oncc1C(=O)Nc1ccc(C(F)(F)F)cc1` [Compound 1, Leflunomide], the “Zebrafish IC50” value [1] is reported as “No”, the IC50 (HEI-OC1 cells [2]; [9]) is reported as 3000 nM and the “HEI-OC1 LD50” value (HEI-OC1 cells [3]; mouse, 22 h) is reported as >40 µM. The OHC survival [4] was 100%, the “Mouse Explant LD50” value ([5]; mouse, 24 h) was >50 µM and the “Zebrafish LD50” value [6] was >5.0 µM.
In the case of `O=C([O-])c1cc(/N=N/c2ccc(O)c(C(=O)[O-])c2)ccc1O.[Na+].[Na+]` [Compound 2, Olsalazine sodium], the “Zebrafish IC50” value [1] is reported as “No”, the IC50 (HEI-OC1 cells [2]; [10]) is reported as 6200 nM and the “HEI-OC1 LD50” value (HEI-OC1 cells [3]; [11]) is reported as >40 µM. The IC50 [4, 12] was ~30000 nM, the “OHCs protected against cisplatin (For x%)” value (from here on “OHCs protected … (For x%)”) [4] was “(For 50%)” and the “Mouse Explant LD50” value ([5]; P3 cochlear explants) was >30 µM. The “Zebrafish LD50” value [6] was >30 µM.
For `CCOc1cc2ncc(C#N)c(Nc3ccc(F)c(Cl)c3)c2cc1NC(=O)/C=C/CN(C)C` [Compound 3, Pelitinib], the “Zebrafish IC50” value [1] was “No”, the IC50 (HEI-OC1 cells [2]; [9]) was 600 nM and the “HEI-OC1 LD50” value (HEI-OC1 cells [3]; mouse, 22 h) was >40 µM. The IC50 [4, 13] was ~6000 nM, the “OHCs protected … (For x%)” value [4] was “(For 50%)” and the “Mouse Explant LD50” value ([5]; mouse, 24 h) was <13 µM. For the same compound, the “Zebrafish LD50” value [6] was <27 µM.
In the case of `CCCCCC[C@H]1C(=O)OC(C)C(NC(=O)c2cccc(NC=O)c2O)C(=O)O[C@@H](C)C1OC(=O)CC(C)C` (stereo partly drawn) [Compound 5, Antimycin A], the “Zebrafish IC50” value [1] is reported as “No”, the IC50 (HEI-OC1 cells [2]; [9]) is reported as 40 nM and the “HEI-OC1 LD50” value (HEI-OC1 cells [3]; [11]) is reported as >10 µM. For the same compound, the IC50 [4, 13] was ~1800 nM, the “OHCs protected … (For x%)” value [4] was “(For 31%)” and the “Mouse Explant LD50” value ([5]; P3 cochlear explants) was <4 µM. For the same compound, the “Zebrafish LD50” value [6] was <0.6 µM.
With `O=c1cc(CN2CCOCC2)occ1OCCCCCSc1ccnc2cc(C(F)(F)F)ccc12` [Compound 7, EHT1864] the “Zebrafish IC50” value [1] was “No”, the IC50 (HEI-OC1 cells [2]; [9]) was 2000 nM and the “HEI-OC1 LD50” value (HEI-OC1 cells [3]; mouse, 22 h) was >20 µM. For the same compound, the “interference with cisplatin anti-tumor activity” value [7] was “no interference in all tumor cell lines (except one for Compound 7)”, the IC50 [4, 13] was ~10000 nM and the “OHCs protected … (For x%)” value [4] was “(For 58%)”. For the same compound, the “Mouse Explant LD50” value ([5]; mouse, 24 h) was <20 µM and the “Zebrafish LD50” value [6] was <1.0 µM.
With `CC[C@H](CO)Nc1nc(NCc2ccccc2O)c2ncn(C(C)C)c2n1` [Compound 9, Olomoucine II] the “Zebrafish IC50” value [1] was “No”, the IC50 (HEI-OC1 cells [2]; [9]) was 800 nM and the IC50 (HEI-OC1 cells [2]; [14]) was 800 nM. The “HEI-OC1 LD50” value (HEI-OC1 cells [3]; mouse, 22 h) was >40 µM, the “protection against cisplatin-induced hair cell loss in cochlear explants” value ([4]; 50 μM cisplatin, 24 hrs) was “protect against cisplatin-induced hair cell loss” and the OHC survival [4] was 100%. For the same compound, the “Explant Cisplatin LD50” value [4] was 3,000 nM, the Explant Cisplatin LD50 ([5]; mouse, 24 h) was > 33000 nM and the “Mouse Explant LD50” value ([5]; mouse, 24 h) was >33 µM. For the same compound, the “Zebrafish LD50” value [6] was >50 µM.
For `Sc1nc2ccccc2s1` [Compound 10, 2-Mercapto-benzothiazole], the IC50 (HEI-OC1 cells [2]; [9]) was 7000 nM, the “HEI-OC1 LD50” value (HEI-OC1 cells [3]; [11]) was >10 µM and the IC50 [4, 13] was > 49000 nM.
For `O=C1C=C2C(=CCOC2O)O1` (stereo not drawn) [Compound 11, Patulin], the IC50 (HEI-OC1 cells [2]; [9]) was 700 nM and the IC50 ([4]; Mus musculus, 24 h) was 3000 to 9000 nM.
For `OC[C@H]1OC(c2nc3ccccc3[nH]2)[C@H](O)[C@@H]1O` (stereo partly drawn) [Compound 13, D-Ribofuranosyl- benzimidazole], the “Zebrafish IC50” value [1] was “No”, the IC50 (HEI-OC1 cells [2]; [9]) was 4000 nM and the “HEI-OC1 LD50” value (HEI-OC1 cells [3]; mouse, 22 h) was >40 µM. The IC50 [4, 13] was ~8000 nM, the “OHCs protected … (For x%)” value [4] was “(For 76%)” and the “Zebrafish LD50” value [6] was >75 µM.
In the case of `CN(C)CCOc1ccc(-c2cc(-c3ccc4c(c3)CC/C4=N\O)c(-c3ccncc3)o2)cc1` [Compound 14], the IC50 (HEI-OC1 cells [2]; [9]) is reported as 1300 nM and the “HEI-OC1 LD50” value (HEI-OC1 cells [3]; mouse, 22 h) is reported as >10 µM.
With `CN[C@H](C#Cc1c(F)ccc2c1/C(=C/c1[nH]ccc1OC)C(=O)N2)CO` [Compound 15] the IC50 (HEI-OC1 cells [2]; [9]) was 100 nM and the “HEI-OC1 LD50” value (HEI-OC1 cells [3]; mouse, 22 h) was >10 µM.
For `O=C(Nc1n[nH]c2nc(-c3ccc(O)cc3)c(Br)cc12)C1CC1` [Compound 16], the IC50 (HEI-OC1 cells [2]; [9]) was 800 nM and the “HEI-OC1 LD50” value (HEI-OC1 cells [3]; mouse, 22 h) was >40 µM.
For `COc1cccc(-c2c[nH]c3c(N/N=C/c4ccncc4)ncnc23)c1` [Compound 17], the IC50 (HEI-OC1 cells [2]; [9]) was 2100 nM and the “HEI-OC1 LD50” value (HEI-OC1 cells [3]; mouse, 22 h) was >40 µM.
In the case of `CC(C)COC(=O)c1ccc2[nH]c(O)c(/C=N/c3ccc(S(N)(=O)=O)cc3)c2c1` [Compound 18], the IC50 (HEI-OC1 cells [2]; [9]) is reported as 3400 nM and the “HEI-OC1 LD50” value (HEI-OC1 cells [3]; mouse, 22 h) is reported as >40 µM.
In the case of `O=c1c2ccccc2[se]n1-c1ccccc1` [Ebselen, 2-phenyl-1,2-benzisoselenazol-3-one, reference compound], the “potency in protection against cisplatin” value (HEI-OC1 cells [2]; dose response) is reported as “low potency”.
For `Cc1ccc(C(=O)Cn2c3c(sc2=N)CCCC3)cc1` [Pifithrin-α, reference compound], the “concentration for full reduction of caspase-3/7 activity” value (HEI-OC1 cells [2]; 50 μM cisplatin) is listed as 34 µM, the IC50 (HEI-OC1 cells [2]; read-out: IC50, reduction of caspase-3/7 activity (caspase-3 cleavage), reference compound, 50 μM cisplatin) is listed as 17000 nM and the “damage at protective doses” value (mouse cochlear explants; 20-100 μM) is listed as “damage the hair cell stereocillia”. The “concentrations conferring protection from cisplatin-induced cell death” value (mouse cochlear explants; mouse cochlear explants) was 20 to 100 µM.
In the case of `Cc1ncc(-c2ccnc(Nc3ccc(S(C)(=O)=O)cc3)n2)n1C(C)C` [SJZuo-19, AZD5438], the “oral bioavailability, F” value [8] is listed as 91%, the “Explant Cisplatin LD50” value [4] is listed as ~25 nM and the Explant Cisplatin LD50 ([5]; mouse, 24 h) is listed as < 1000 nM.
For `O=C(NC1CCNCC1)c1n[nH]cc1NC(=O)c1c(Cl)cccc1Cl` [SJZuo-20, AT7519], the “oral bioavailability, F” value [8] is listed as < 1%, the IC50 (HEI-OC1 cells [2]; [14]) is listed as 380 nM and the “Explant Cisplatin LD50” value [4] is listed as ~25 nM. The Explant Cisplatin LD50 ([5]; mouse, 24 h) was < 1000 nM and the IC50 (CDK1, 2, 4, 6 and 9) was […].
For `N.N.[Cl][Pt][Cl]` [cisplatin, reference compound], the “death of outer hair cells (OHCs)” value ([5]; 50 μM, 24 hrs) was ~40% and the hair cells killed ([6]; 5 μM, 20 hrs, no protective compound) was 91%.
In the case of `COC(=O)C[C@H](NC(=O)[C@H](C)NC(=O)[C@@H](NC(=O)OCc1ccccc1)C(C)C)C(=O)CF` [zVAD-fmk] (Cbz-Val-Ala-Asp(OMe)-CH2F), the IC50 (mouse cochlear explants; read-out: IC50, inhibition of cisplatin-induced cell death in the mouse cochlea) is given as 200 nM.
With “Cyanocobalamin (vitamin B12) [Compound 6]” the IC50 (HEI-OC1 cells [2]; [10]) was 4200 nM, the “HEI-OC1 LD50” value (HEI-OC1 cells [3]; [11]) was >40 µM and the IC50 [4, 12] was ~21000 nM. The “OHCs protected … (For x%)” value [4] was “(For 53%)” and the “Mouse Explant LD50” value ([5]; P3 cochlear explants) was >21 µM.
